test: HILIC, HILICON iHILIC-(P) Classic, HILIC, PEEK, 100 × 2.1 mm, 5 µm, 40 °C, 0.2 mL/min, estimated dead time 1.1 min; A: water + 20 mM ammonium carbonate + 5 µM medronic acid; B: 10% water + 90% acetonitrile + 2 mM ammonium carbonate + 0.5 µM medronic acid; gradient (min/%B) 0/95 18/55 19/20 22/20 22.5/95 24/95 26/95; conditions: stereoisomer not certain

O=C(O)CCC(=O)C(=O)O [2-Oxoglutaric acid] and O=C(O)CCC(=O)O [Succinic Acid] are within 1.5-fold of each other in LC retention time: 12.7 min for the first, 11.2 min for the second.

Nc1ncnc2c1ncn2C1OC(COP(=O)(O)OP(=O)(O)O)C(O)C1O (centres undefined) [ADP] and Nc1ncnc2c1ncn2C1OC(COP(=O)(O)OP(=O)(O)OP(=O)(O)O)C(O)C1O (centres undefined) [ATP] are within 1.5-fold of each other in LC retention time: 11.9 min for the first, 13.3 min for the second.

Going from Nc1ncnc2c1ncn2C1OC(COP(=O)(O)O)C(O)C1O (centres undefined) [AMP] to Nc1ncnc2c1ncn2C1OC(CO)C(O)C1O (centres undefined) [Adenosine], the LC retention time falls from 10.1 min to 4.79 min (2.1-fold).

CC(=O)SCCNC(=O)CCNC(=O)C(O)C(C)(C)COP(=O)(O)OP(=O)(O)OCC1OC(n2cnc3c(N)ncnc32)C(O)C1OP(=O)(O)O (centres undefined) [Acetyl-CoA] and CC(C)(COP(=O)(O)OP(=O)(O)OCC1OC(n2cnc3c(N)ncnc32)C(O)C1OP(=O)(O)O)C(O)C(=O)NCCC(=O)NCCS (centres undefined) [CoenzymeA] are within 1.5-fold of each other in LC retention time: 9.93 min for the first, 11.5 min for the second.

NC(N)=NCCCC(N)C(=O)O (centres undefined) [Arginine] and NCCCCC(N)C(=O)O (centres undefined) [Lysine] are within 1.5-fold of each other in LC retention time: 18.5 min for the first, 18.3 min for the second.

NC(=O)CC(N)C(=O)O (centres undefined) [Asparagine] and NC(CC(=O)O)C(=O)O (centres undefined) [Aspartic Acid] are within 1.5-fold of each other in LC retention time: 9.65 min for the first, 10.2 min for the second.

O=C(O)CC(O)(CC(=O)O)C(=O)O [Citric acid] and O=C(O)CC(C(=O)O)C(O)C(=O)O (centres undefined) [Isocitric acid] are within 1.5-fold of each other in LC retention time: 15.3 min for the first, 15.5 min for the second.

O=C(CO)C(O)C(O)C(O)COP(=O)(O)O (centres undefined) [Fructose 6-phosphate] and O=P(O)(O)OCC(O)CO (centres undefined) [Glycerol-3-phosphate] are within 1.5-fold of each other in LC retention time: 11.9 min for the first, 10.8 min for the second.

O=P(O)(O)OCC1OC(O)(COP(=O)(O)O)C(O)C1O (centres undefined) [Fructose-1,6-bisphosphate] and O=P(O)(O)OCC1OC(O)C(O)C1O (centres undefined) [Pentose-phosphate] are within 1.5-fold of each other in LC retention time: 16.4 min for the first, 11.6 min for the second.

O=C(O)C=CC(=O)O [Fumaric Acid] and O=C(O)CC(O)C(=O)O (centres undefined) [Malic Acid] are within 1.5-fold of each other in LC retention time: 12.4 min for the first, 11.9 min for the second.

NC(CCC(=O)NC(CS)C(=O)NCC(=O)O)C(=O)O (centres undefined) [GSH] and NC(CCC(=O)O)C(=O)O (centres undefined) [Glutamic acid] are within 1.5-fold of each other in LC retention time: 10.2 min for the first, 9.7 min for the second.

NC(CCC(=O)NC(CSSCC(NC(=O)CCC(N)C(=O)O)C(=O)NCC(=O)O)C(=O)NCC(=O)O)C(=O)O (centres undefined) [GSSG] and NC(=O)CCC(N)C(=O)O (centres undefined) [Glutamine] are within 1.5-fold of each other in LC retention time: 14.7 min for the first, 9.81 min for the second.

O=P(O)(O)OC1OC(CO)C(O)C(O)C1O (centres undefined) [Glucose-1-phosphate] and O=P(O)(O)OCC1OC(O)C(O)C(O)C1O (centres undefined) [Glucose-6-phosphate] are within 1.5-fold of each other in LC retention time: 11.9 min for the first, 13.9 min for the second.

Going from CC(O)C(=O)O (centres undefined) [Lactic Acid] to C=C(OP(=O)(O)O)C(=O)O [PEP], the LC retention time rises from 3.92 min to 14.6 min (3.7-fold).

Compared with NC(=O)C1=CN(C2OC(COP(=O)(O)OP(=O)(O)OCC3OC(n4cnc5c(N)ncnc54)C(O)C3O)C(O)C2O)C=CC1 (centres undefined) [NADH], NC(=O)C1=CN(C2OC(COP(=O)(O)OP(=O)(O)OCC3OC(n4cnc5c(N)ncnc54)C(OP(=O)(O)O)C3O)C(O)C2O)C=CC1 (centres undefined) [NADPH] is 1.7-fold higher in LC retention time: 9.08 min for the first, 15.2 min for the second.

NC(=O)c1ccc[n+](C2OC(COP(=O)(O)OP(=O)(O)OCC3OC(n4cnc5c(N)ncnc54)C(OP(=O)(O)O)C3O)C(O)C2O)c1 (centres undefined) [NADP] and NC(=O)c1ccc[n+](C2OC(COP(=O)(O)OP(=O)(O)OCC3OC(n4cnc5c(N)ncnc54)C(O)C3O)C(O)C2O)c1 (centres undefined) [NAD] are within 1.5-fold of each other in LC retention time: 14.4 min for the first, 11.1 min for the second.

O=C(CO)COP(=O)(O)O [Triose phosphate] and CC(=O)NC1C(OP(=O)(O)OP(=O)(O)OCC2OC(n3ccc(=O)[nH]c3=O)C(O)C2O)OC(CO)C(O)C1O (centres undefined) [UDP-GlcNAc] are within 1.5-fold of each other in LC retention time: 11.8 min for the first, 12 min for the second.
